Patent publication US10934276B2, “Positive allosteric modulators of the muscarinic acetylcholine receptor M4” (Vanderbilt University, priority 2016, dated 2021)

Key:
[1] = patients treated with AChE inhibitors such as tacrine; cited from earlier work
Human M4 = biological target: T1, Human M4 (Homo sapiens, UniProt P08173); test: mAChR M4 cell-based functional assay (calcium flux, potentiation of EC20 acetylcholine response in CHO-K1 hM4-Gqi5 cells); details: for Emax at 30 µM: CHO-K1, % ACh maximum at 30 μM, human M4; for EC50: positive allosteric modulator mode, EC20 acetylcholine, CHO-K1 cells with human M4 and Gqi5
T1 construct: expressed in transfected cells; host or cells: CHO-K1 (ATCC), stably expressing hM4 and Gqi5
T1 sequence (P08173 1-479): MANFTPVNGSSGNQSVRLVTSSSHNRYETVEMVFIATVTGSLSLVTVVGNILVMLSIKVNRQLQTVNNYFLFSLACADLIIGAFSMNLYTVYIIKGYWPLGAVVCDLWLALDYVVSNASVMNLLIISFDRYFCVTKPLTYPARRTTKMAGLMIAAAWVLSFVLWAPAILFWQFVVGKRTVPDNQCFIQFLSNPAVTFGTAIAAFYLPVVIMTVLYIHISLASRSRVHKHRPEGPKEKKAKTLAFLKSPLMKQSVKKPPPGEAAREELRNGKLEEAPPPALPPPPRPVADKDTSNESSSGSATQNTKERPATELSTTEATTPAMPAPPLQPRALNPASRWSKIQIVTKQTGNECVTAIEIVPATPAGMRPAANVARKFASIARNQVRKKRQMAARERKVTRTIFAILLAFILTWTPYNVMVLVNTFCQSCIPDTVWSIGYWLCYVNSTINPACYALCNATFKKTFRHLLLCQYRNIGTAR
Protocol: Human M4 cDNA, along with the chimeric G protein Gqi5, were transfected into Chinese hamster ovary (CHO—K1) cells purchased from the American Type Culture Collection using Lipofectamine2000. hM4-Gqi5 cells were grown in Ham's F-12 medium containing 10% heat-inactivated fetal bovine serum (FBS), 20 mM HEPES, 50 μg/mL G418 sulfate, and 500 μg/mL Hygromycin B. rM4-Gqi5 cells were grown in DMEM containing 10% heat-inactivated FBS, 20 mM HEPES, 400 μg/mL G418 sulfate, and 500 μg/mL Hygromycin B.
For high throughput measurement of agonist-evoked increases in intracellular calcium, CHO—K1 cells stably expressing muscarinic receptors were plated in growth medium lacking G418 and hygromycin at 15,000 cells/20 μL/well in Greiner 384-well black-walled, tissue culture (TC)-treated, clear-bottom plates (VWR). Cells were incubated overnight at 37° C. and 5% CO2. The next day, cells were washed using an ELX 405 (BioTek) with assay buffer; the final volume was then aspirated to 20 μL. Next, 20 μL of a 2.3 μM stock of Fluo-4/acetoxymethyl ester (Invitrogen, Carlsbad, Calif.), prepared as a 2.3 mM stock in DMSO and mixed in a 1:1 ratio with 10% (w/v) Pluronic F-127 and diluted in assay buffer, was added to the wells and the cell plates were incubated for 50 min at 37° C. and 5% CO2. Dye was removed by washing with the ELX 405 and the final volume was aspirated to 20 μL. Compound master plates were formatted in an 11 point concentration-response curve (CRC) format (1:3 dilutions) in 100% DMSO with a starting concentration of 10 mM using a BRAVO liquid handler (Agilent). Test compound CRCs were then transferred to daughter plates (240 nL) using the Echo acoustic plate reformatter (Labcyte, Sunnyvale, Calif.) and then diluted into assay buffer (40 μL) to a 2× stock using a Thermo Fisher Combi (Thermo Fisher Scientific, Waltham, Mass.).
Calcium flux was measured using the Functional Drug Screening System (FDSS) 6000 or 7000 (Hamamatsu Corporation, Tokyo, Japan) as an increase in the fluorescent static ratio. Compounds were applied to cells (20 μL, 2×) using the automated system of the FDSS at 2-4 seconds into the protocol and the data were collected at 1 Hz. At 144 seconds, 10 μL of an EC20 concentration of the muscarinic receptor agonist acetylcholine was added (5×), followed by the addition of 12 μL of an EC80 concentration of acetylcholine at the 230 second time point (5×). Agonist activity was analyzed as a concentration-dependent increase in calcium mobilization upon compound addition. Positive allosteric modulator activity was analyzed as a concentration-dependent increase in the EC20 acetylcholine response. With the acetylcholine EC20 set as baseline, the test compound EC50 is determined as the concentration that produces an increase above baseline of 50% of the maximum increase in acetylcholine response elicted by the test compound. Antagonist activity was analyzed as a concentration-dependent decrease in the EC80 acetylcholine response. Concentration-response curves were generated using a four-parameter logistical equation in XLFit curve fitting software (IDBS, Bridgewater, N.J.) for Excel (Microsoft, Redmond, Wash.) or Prism (GraphPad Software, Inc., San Diego, Calif.).
Compounds were synthesized as described above. Activity (EC50 and Emax) was determined in the mAChR M4 cell-based functional assay as described above and the data are shown in Table 3. The compound numbers correspond to the compound numbers used in Examples 2-4 and Tables 1 and 2.

In the case of `Nc1c2c(nc3ccccc13)CCCC2` [tacrine], the “patients with elevated liver transaminases (hepatotoxicity)” value [1] is given as “about 30%”.
`Cc1nnc2ccc(C(=O)NC3CN(c4cc(Cl)ncc4Cl)C3)cc2c1C` [Compound 30, N-[1-(2,5-dichloro-4-pyridyl)azetidin-3-yl]-3,4-dimethyl-cinnoline-6-carboxamide] showed an Emax at 30 µM (Human M4) of 91.6% and an EC50 (Human M4) of 120 nM.
`Cc1nnc2ccc(C(=O)NC3CN(c4ncc(Cl)cc4F)C3)cc2c1C` [Compound 36, N-[1-(5-chloro-3-fluoro-2-pyridyl)azetidin-3-yl]-3,4-dimethyl-cinnoline-6-carboxamide] gave an Emax at 30 µM (Human M4) of 82% and an EC50 (Human M4) of 650 nM.
Molecule `Cc1nnc2ccc(C(=O)NC3CN(c4ncc(F)cc4Cl)C3)cc2c1C` [Compound 26, N-[1-(3-chloro-5-fluoro-2-pyridyl)azetidin-3-yl]-3,4-dimethyl-cinnoline-6-carboxamide] has an Emax at 30 µM (Human M4) of 79.7% and an EC50 (Human M4) of 460 nM.
For `Cc1nnc2ccc(C(=O)NC3CN(c4cccc(F)n4)C3)cc2c1C` [Compound 33, N-[1-(6-fluoro-2-pyridyl)azetidin-3-yl]-3,4-dimethyl-cinnoline-6-carboxamide], the Emax at 30 µM (Human M4) was 84.5% and the EC50 (Human M4) was 670 nM.
With `Cc1nnc2ccc(C(=O)NC3CN(c4cccc(Cl)n4)C3)cc2c1C` [Compound 32, N-[1-(6-chloro-2-pyridyl)azetidin-3-yl]-3,4-dimethyl-cinnoline-6-carboxamide] the Emax at 30 µM (Human M4) was 77.2% and the EC50 (Human M4) was 1320 nM.
`Cc1nnc2ccc(C(=O)NC3CN(c4ccc(Cl)cn4)C3)cc2c1C` [Compound 23, N-[1-(5-chloro-2-pyridyl)azetidin-3-yl]-3,4-dimethyl-cinnoline-6-carboxamide] showed an Emax at 30 µM (Human M4) of 73.4% and an EC50 (Human M4) of 1270 nM.
With `Cc1cc(C)c2cc(C(=O)NC3CN(c4ncc(C(F)(F)F)cn4)C3)ccc2n1` [Compound 3, 2,4-dimethyl-N-[1-[5-(trifluoromethyl)pyrimidin-2-yl]azetidin-3-yl]quinoline-6-carboxamide] the Emax at 30 µM (Human M4) was 44.2% and the EC50 (Human M4) was 6900 nM.
Work on `Cc1cc(N2CC(NC(=O)c3ccc4nc(C)cc(C)c4c3)C2)cc(OC(F)F)n1` [Compound 8, N-[1-[2-(difluoromethoxy)-6-methyl-4-pyridyl]azetidin-3-yl]-2,4-dimethyl-quinoline-6-carboxamide] yielded an Emax at 30 µM (Human M4) of 41.1% and an EC50 (Human M4) of 1700 nM.
Work on `Cc1nnc2ccc(C(=O)NC3CN(c4ncc(F)cn4)C3)cc2c1C` [Compound 19, N-[1-(5-fluoropyrimidin-2-yl)azetidin-3-yl]-3,4-dimethyl-cinnoline-6-carboxamide] yielded an Emax at 30 µM (Human M4) of 75.4% and an EC50 (Human M4) greater than 10000 nM.
`Cc1cc(C)c2cc(C(=O)NCc3cccnc3)ccc2n1` [Compound 7, 2,4-dimethyl-N-(3-pyridylmethyl)quinoline-6-carboxamide] gave an Emax at 30 µM (Human M4) of 32% and an EC50 (Human M4) greater than 10000 nM.
In the case of `Cc1cc(C)c2cc(C(=O)NC3CN(c4nccc(Br)c4Cl)C3)ccc2n1` [Compound 11, N-[1-(4-bromo-3-chloro-2-pyridyl)azetidin-3-yl]-2,4-dimethyl-quinoline-6-carboxamide], the Emax at 30 µM (Human M4) is reported as 27.5% and the EC50 (Human M4) is reported as 2200 nM.
With `Cc1nnc2ccc(C(=O)NC3CN(c4cnc(C(F)(F)F)cn4)C3)cc2c1C` [Compound 21, 3,4-dimethyl-N-[1-[5-(trifluoromethyl)pyrazin-2-yl]azetidin-3-yl]cinnoline-6-carboxamide] the Emax at 30 µM (Human M4) was 77.8% and the EC50 (Human M4) was greater than 10000 nM.
Work on `Cc1nnc2ccc(C(=O)NC3CCCC3)cc2c1C` [Compound 41, N-cyclopentyl-3,4-dimethyl-cinnoline-6-carboxamide] yielded an Emax at 30 µM (Human M4) of 53.5% and an EC50 (Human M4) greater than 10000 nM.
`COc1cc(N2CC(NC(=O)c3ccc4nnc(C)c(C)c4c3)C2)c(Cl)cn1` [Compound 14, N-[1-(5-chloro-2-methoxy-4-pyridyl)azetidin-3-yl]-3,4-dimethyl-cinnoline-6-carboxamide] showed an Emax at 30 µM (Human M4) of 74.1% and an EC50 (Human M4) of 370 nM.
Molecule `Cc1nnc2ccc(C(=O)NC3CN(c4ncccc4Cl)C3)cc2c1C` [Compound 35, N-[1-(3-chloro-2-pyridyl)azetidin-3-yl]-3,4-dimethyl-cinnoline-6-carboxamide] has an Emax at 30 µM (Human M4) of 83.7% and an EC50 (Human M4) of 950 nM.
